Measured values: US8076327B2, “Condensed imidazole derivatives as aldosterone synthase inhibitors” (Novartis AG, priority 2006, dated 2011)

Experiments:
[1] = target: T1, recombinant human Cyp19 enzyme (Homo sapiens, UniProt P11511); experiment: Cyp19/MFC high throughput enzyme inhibition kit (aromatase); assay type: biochemical
T1 construct: purchased Becton Dickinson Biosciences, San Jose, Calif., USA
T1 sequence (P11511 1-503): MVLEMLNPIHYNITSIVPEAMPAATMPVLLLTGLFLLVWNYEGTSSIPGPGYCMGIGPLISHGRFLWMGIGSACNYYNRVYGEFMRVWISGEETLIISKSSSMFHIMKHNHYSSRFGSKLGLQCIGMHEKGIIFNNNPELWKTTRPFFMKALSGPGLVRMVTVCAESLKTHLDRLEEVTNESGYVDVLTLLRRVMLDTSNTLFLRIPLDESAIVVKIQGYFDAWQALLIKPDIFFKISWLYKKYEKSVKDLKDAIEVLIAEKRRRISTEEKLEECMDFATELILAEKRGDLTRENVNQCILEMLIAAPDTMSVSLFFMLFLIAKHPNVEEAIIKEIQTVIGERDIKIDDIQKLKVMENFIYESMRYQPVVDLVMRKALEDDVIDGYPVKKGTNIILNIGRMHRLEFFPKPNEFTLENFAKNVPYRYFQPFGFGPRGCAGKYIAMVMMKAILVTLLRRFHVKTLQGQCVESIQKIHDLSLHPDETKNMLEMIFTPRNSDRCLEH
Description: The compounds of the formula (Ia) have at least one asymmetric carbon atom, which is labelled “*”. A compound of the formula (Ia) is to be understood as a compound having a specific configuration around the designated asymmetric carbon atom. If a synthesis method is used which leads to racemic compounds, the racemate resolution is carried out in accordance with conventional methods, such as via a chiral HPLC column. […] The aforementioned aromatase inhibitory activity can, as the skilled worker is well aware and as described below, be comfortably determined using the commercial Cyp19 enzyme inhibition kit, preferably the Cyp19/methoxy-4-trifluoromethyl-coumarin (MFC) high throughput inhibition kit (Becton Dickinson Biosciences, San Jose, Calif., USA) as described hereafter. In the abovementioned inhibition kit, compounds of the formula (Ia) have an activity which is at least 10 times lower preferably 20 times lower, but more preferably 40 times lower than the compounds of the formula (Ia) with the opposite configuration around the asymmetric carbon atom labelled “*”. A lower inhibiting activity corresponds to a higher IC50 value.
The Cyp19/methoxy-4-trifluoromethyl-coumarin (MFC) high throughput inhibition kit (Becton Dickinson Biosciences, San Jose, Calif., USA), for example, is designed to screen for potential inhibitors of Cyp19 catalytic activity in a 96-well format. […]

[2] = system: plasma aldosterone levels; experiment: Suppression of plasma aldosterone in ACTH-stimulated rats; assay type: in vivo, Wistar rats; details: 4 mg/kg p.o.; plasma level 2 h after dosing relative to 1 h prior to dosing; rat
Description: (§1) The aldosterone- and corticosterone-suppressing activity of herein described compounds may be assessed with the following in vivo protocol.
(§2) Adult male Wistar rats weighing between 250 and 350 grams are kept under the usual 12-hour light and 12-hour dark conditions at a temperature of 23° C.±2° C. On the first day of the experiment, the animals receive a subcutaneous injection of a depot ACTH product in a dose of 1.0 mg/kg weight (SYNACTHEN-Depot, Novartis, Basel, CH) 16 hours prior to the administration of a test compound. […] An alternative method to stimulate aldosterone secretion consists in subjecting rats to a low salt diet for 48 hours and applying the diuretic furosemide at 10 mg/kg by subcutaneous or intraperitoneal administration 16 hours, respectively 2 hours prior to the start of the experiment. On the second day of the experiment, the animals are divided into test groups of 5 animals and subjected to a first bleed 1 hour prior to the administration of test compound. Subsequently, and 16 hours after the injection of the ACTH product, the animals receive either vehicle or test compound dissolved in vehicle in a variable dose range from 0.02 to 20 mg/kg by oral gavage. The animals are bled two more times from the vena subclavia under isoflurane anaesthesia 2 and 6 hours after dosing. The blood is collected in heparin-treated tubes. The plasma samples are obtained by centrifugation and stored at −20° C. An alternative method to bleed animals time-dependently consists in using animals that are chronically carotid catheterized which allows the periodical sampling of up to 0.2 ml of blood using an AccuSampler (DiLab Europe, Lund, Sweden). The blood sampling with the AccuSampler may occur 1 hour prior to the administration of a test compound and 2, 4, 6, 8, 12, 16 and 24 hours thereafter. The blood samples are anticoagulated with heparin and centrifuged. The aldosterone and corticosterone concentrations of the plasma samples can be determined with a radioimmunoassay as described above for the in vitro test systems.
(§3) The selective suppression of plasma steroid levels as for instance aldosterone in comparison to corticosterone may serve as a measure for in vivo bioavailability and pharmacodynamic enzyme inhibitory activity of the herein described compounds. The evaluation of the data may occur relative to the application of vehicle or quantitatively by determination of the area under the curve (AUC).

[3] = system: plasma corticosterone levels; experiment: Suppression of plasma corticosterone in ACTH-stimulated rats; assay type: in vivo, Wistar rats; details: 4 mg/kg p.o.; plasma level 2 h after dosing relative to 1 h prior to dosing; rat
Description: as §1, §2, §3

| SMILES | IC50 [1] [nM] | Aldosterone levels (% change at 2 h) [2] [%] | Corticosterone levels (% change at 2 h) [3] [%] |
| --- | --- | --- | --- |
| N#Cc1ccc(C2OCCn3cncc32)cc1 (racemic) [antipode of 24, 4-(5,6-Dihydro-8H-imidazo[5,1-c][1,4]oxazin-8-yl)benzonitrile] | 7.1 |  |  |
| N#Cc1ccc(C2SCCn3cncc32)cc1 (stereo not drawn) [Example 2, 4-(5,6-Dihydro-8H-imidazo[5,1-c][1,4]thiazin-8-yl)benzonitrile] |  | −56 | −22 |
| CC1(c2ccc(C#N)cc2)SCCn2cncc21 (stereo not drawn) [Example 4, 4-(8-Methyl-5,6-dihydro-8H-imidazo[5,1-c][1,4]thiazin-8-yl)-benzonitrile] |  | −19 | −10 |
| CC(=O)c1ccc(C2OCCn3cncc32)cc1 (stereo not drawn) [Example 18, 1-[4-(5,6-Dihydro-8H-imidazo[5,1-c][1,4]oxazin-8-yl)phenyl]ethanone] |  | −33 | 4 |
| N#Cc1cccc(C2OCCn3cncc32)c1 (stereo not drawn) [Example 19, 3-(5,6-Dihydro-8H-imidazo[5,1-c][1,4]oxazin-8-yl)benzonitrile] |  | −65 | 1.7 |
